From patent US20220079931A1, “ESTROGEN RECEPTOR PROTEIN DEGRADERS” (THE REGENTS OF THE UNIVERSITY OF MICHIGAN, priority 2019, published 2022) come the findings set out here.

One assay deals with MCF-7 cells. In words: Crystal violet staining experiment in MCF-7 cells. The conditions noted are these: 10 nM, 100 nM and 300 nM, versus raloxifene and fulvestrant.
Assay [1] deals with T1, ERα (Homo sapiens, UniProt P03372).
T1 sequence (P03372 1-595): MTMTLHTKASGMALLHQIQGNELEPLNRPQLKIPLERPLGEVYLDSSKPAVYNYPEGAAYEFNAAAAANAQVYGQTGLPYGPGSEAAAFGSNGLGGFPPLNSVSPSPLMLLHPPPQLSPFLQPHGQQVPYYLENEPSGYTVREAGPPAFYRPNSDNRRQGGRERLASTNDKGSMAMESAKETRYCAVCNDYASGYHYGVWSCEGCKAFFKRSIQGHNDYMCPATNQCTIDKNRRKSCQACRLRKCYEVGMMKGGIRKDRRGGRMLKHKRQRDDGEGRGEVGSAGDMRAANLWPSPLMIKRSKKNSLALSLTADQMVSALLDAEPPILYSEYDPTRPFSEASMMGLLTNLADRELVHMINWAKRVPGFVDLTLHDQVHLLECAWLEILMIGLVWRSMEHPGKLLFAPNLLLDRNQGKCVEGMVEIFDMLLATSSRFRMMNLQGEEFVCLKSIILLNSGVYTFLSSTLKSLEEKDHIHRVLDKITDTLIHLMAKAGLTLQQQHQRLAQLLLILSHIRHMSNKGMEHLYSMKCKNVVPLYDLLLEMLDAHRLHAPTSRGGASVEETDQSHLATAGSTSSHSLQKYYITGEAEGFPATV
The assay is described as follows: ER degradation by Western blotting in T47D cells. The format is cell-based. Also noted: Dmax: dose or concentration left out as unconfirmed. Here is the method:
FIG. 8 is an image showing the ERα degradation dose-response Western blotting for compound 32 at 4 h in T47D cells. […] Cell Culture. Human breast cancer cell lines MCF-7 (ATCC® HTB-22TM) and T47D (ATCC® HTB-133TM) were purchased from the American Type Culture Collection (ATCC), Manassas, Va., and maintained and cultured in Dulbecco's Modified Eagle's medium (DMEM) containing 10% fetal bovine serum, 1 unit/ml of penicillin and 1 μg/ml of streptomycin. Cells with 3-8 passages after purchase were used in experiments as indicated. Western Blot Analysis. Western blot analysis was performed essentially as described previously (Hu et al, 2015, PMID: 26358219). Cells treated with indicated compounds were lysed in Radioimmunoprecipitation Assay Protein Lysis and Extraction Buffer (25 mmol/L Tris.HCl, pH 7.6, 150 mmol/L NaCl, 1% Nonidet P-40, 1% sodium deoxycholate, and 0.1% sodium dodecyl sulfate) containing proteinase inhibitor cocktail (Roche Diagnostics, Mannheim, Germany). After determination of protein concentration by BCA assay (Fisher Scientific, Pittsburgh, Pa.), equal amounts of total protein were electrophoresed through 10% SDS-polyacrylamide gels. The separated protein bands were transferred onto PVDF membranes (GE Healthcare Life Sciences, Marlborough, Mass.) and blotted against different antibodies, as indicated. The human estrogen receptor a antibodies (AB16460) were purchased from Abeam, Inc., Cambridge, Mass. The membranes were reblotted with horseradish peroxidase-conjugated anti-glyceraldehyde-3-phosphate dehydrogenase antibody ([…]) from Sigma-Aldrich Corporation, St. Louis, Mo. The blots were scanned and the band intensities were quantified using GelQuant.NET software as described in biochemlabsolutions.com. The relative mean intensity of target proteins was expressed after normalization to the intensity of glyceraldehyde-3-phosphate dehydrogenase bands from individual repeats.

The next assay concerns MDA-MB-231. In words: Cell proliferation in triple-negative breast cancer cells. It is filed as cell-based, human. The conditions noted are these: MDA-MB-231 triple-negative breast cancer cells. Here is the method: Cell Growth Assay. Cells were seeded at 1500/well in 96 well plates overnight. One day after seeding, they were treated with indicated doses of compounds. The growth of the cells was evaluated by colorimetric WST-8 assay 4 days after the compound treatment following the instructions of the manufacturer, Cayman Chemical, Ann Arbor, Mich.
Fulvestrant achieves an Imax value of 43.8%. […] RAD1901, a previously reported SERD molecule^18, achieves an Imax value of 25.7%.

The target in assay [2] is T1, ERα. In words: Mechanism of ER degradation: pretreatment with VHL ligand, ER ligand or proteasome inhibitor, Western blotting in MCF-7 cells. The format is cell-based. Also noted: host or cells: MCF-7. The conditions noted are these: 32 at 30 nM 4 h. Here is the method:
(§1) Then whole-cell lysates were analyzed by Western blotting.
as §1
Western Blot Analysis. […] Cells treated with indicated compounds were lysed in Radioimmunoprecipitation Assay Protein Lysis and Extraction Buffer (25 mmol/L Tris.HCl, pH 7.6, 150 mmol/L NaCl, 1% Nonidet P-40, 1% sodium deoxycholate, and 0.1% sodium dodecyl sulfate) containing proteinase inhibitor cocktail (Roche Diagnostics, Mannheim, Germany). After determination of protein concentration by BCA assay (Fisher Scientific, Pittsburgh, Pa.), equal amounts of total protein were electrophoresed through 10% SDS-polyacrylamide gels. The separated protein bands were transferred onto PVDF membranes (GE Healthcare Life Sciences, Marlborough, Mass.) and blotted against different antibodies, as indicated. The human estrogen receptor a antibodies (AB16460) were purchased from Abeam, Inc., Cambridge, Mass. The membranes were reblotted with horseradish peroxidase-conjugated anti-glyceraldehyde-3-phosphate dehydrogenase antibody (G9295) from Sigma-Aldrich Corporation, St. Louis, Mo. The blots were scanned and the band intensities were quantified using GelQuant.NET software as described in biochemlabsolutions.com. The relative mean intensity of target proteins was expressed after normalization to the intensity of glyceraldehyde-3-phosphate dehydrogenase bands from individual repeats.
In general terms: A western blot detects proteins with antibodies after separation by electrophoresis.

For orientation: DC50 means the midpoint of the concentration-degradation curve. In the case of `CCN(CCCCCOCC(=O)N[C@H](C(=O)N1C[C@H](O)C[C@H]1C(=O)N[C@@H](C)c1ccc(-c2scnc2C)cc1)C(C)(C)C)CCOc1ccc(C(=O)c2c(-c3ccc(O)cc3)sc3cc(O)ccc23)cc1` [compound 32, (2S,4R)-1-((S)-2-(2-((5-(Ethyl(2-(4-(6-hydroxy-2-(4-hydroxyphenyl)benzo[b]thiophene-3-carbonyl)phenoxy)ethyl)amino)pentyl)oxy)acetamido)-3,3-dimethylbutanoyl)-4-hydroxy-N—((S)-1-(4-(4-methylthiazol-5-yl)phenyl)ethyl)pyrrolidine-2-carboxamide], in the assay with MCF-7 cells, the “reduction of cell proliferation (crystal violet staining)” value is recorded as “reduced cell proliferation more significantly than raloxifene or fulvestrant”. On ERα [1] (T47D cells, 1 μM), the hook effect entry is on record as “demonstrates a hook effect”. Further, at ERα [1] (T47D cells, 4 h), it took 0.43 nM to reach half-maximal degradation (DC50). Besides, at ERα [1] (T47D, read-out: maximum degradation), the Dmax is > 95%. Besides, the cell proliferation inhibition entry with MDA-MB-231 is on record as “does not exhibit the cell proliferation inhibition effects”. In addition, the “blocking of ER degradation by compound 32 with 1 μM VHL ligand 11” value at ERα [2] (1 μM VHL ligand 11 pretreatment 2 h) is “only slightly”. In addition, the “ER degradation induced by compound 32 on addition of carfilzomib” value on ERα [2] (1 μM proteasome inhibitor carfilzomib pretreatment 2 h) is “significantly reduced”. For the same molecule, on ERα [2] (1 μM raloxifene pretreatment 2 h), the “ER degradation induced by compound 32 on addition of raloxifene” value is “significantly reduced”. The “blocking of ER degradation by compound 32 with 5 μM or 10 μM VHL ligand 11” value at ERα [2] (5 μM or 10 μM of 11 pretreatment 2 h) is “completely blocked”.
